Results on nine compounds are retold here after ChEMBL document CHEMBL1201862, “PubChem BioAssay data set” (2004).

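Growth conditions: 96-well plates. Treatment: test compound, 48 hours, 5 concentrations. Analysis: linear interpolation between bracketing concentrations; unreached endpoints set to highest concentration. Abbreviation: GI50, concentration required for 50% inhibition of growth.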 Active and inactive are the calls of the source. No stated cut-off is given here; in the data, active = GI50 up to about 1.1 µM and inactive = higher. A value given as a limit tells only on which side of the number the result lay.

Common to all, as to experiment: NCI tumour cell line growth inhibition, 48 h
In test [1] the test system is CCRF-CEM.
For test [2], the system named is HCT-116.
Test [3] relates to HCT-15.
Test [4] relates to KM12.
The subject of test [5] is M14.
The test system of test [6] is MCF7.
Test [7] has as its system MDA-N.
Test [8] concerns Malme-3M.
Test [9] relates to OVCAR-3.
For test [10], the system named is OVCAR-5.
The subject of test [11] is OVCAR-8.
The test system of test [12] is SF-268.
In test [13] the test system is SF-295.
Test [14] concerns SF-539.
Test [15] has as its system SK-MEL-2.
Test [16] deals with SK-MEL-5.
Test [17] has as its system SK-OV-3.
For test [18], the system named is SW-620.
Test [19] relates to TK-10.
The test system of test [20] is UACC-257.

For the compound `Cc1nc2nc3c(ncn3COCCO)c(O)n2c1C(c1ccccc1)(c1ccccc1)c1ccccc1`, the GI50 in [1] is 13.2 µM (inactive); in [2], 15.1 µM (inactive); in test [3], 1.6 µM; in test [4], 12.2 µM (inactive); in [5], 16.3 µM (inactive); in test [6], 10.2 µM (inactive). The GI50 was 13.5 µM (inactive) in test [7]; 18.3 µM (inactive) in [8]; 2.96 µM (inactive) in [9]; 18.7 µM (inactive) in test [10]; 14 µM (inactive) in test [11]; 16 µM (inactive) in [12]. In addition, the GI50 in test [13] is 17.3 µM (inactive); in test [14], 6.25 µM (inactive); in [15] it was 14.5 µM (inactive); in test [16] it was 15.4 µM (inactive); in test [17], 15.9 µM (inactive); in test [18], 19.5 µM (inactive). In addition, the GI50 in [19] is 16.6 µM (inactive); in test [20], 14.1 µM (inactive).
Consider `N=C1C=CC(=C(c2ccc(N)cc2)c2ccc(N)cc2)C=C1`, for which the GI50 in test [1] is 3.15 µM (inactive); in test [2], 3.87 µM (inactive); in test [3], 12.8 µM; in test [4], 3.01 µM (inactive); in test [5], 4.05 µM (inactive); in test [6] it was 3.11 µM (inactive). The GI50 in test [7] is 4.84 µM (inactive); in test [8], 3.18 µM (inactive); in [9] it was 10 µM (inactive); in test [10] it was 9.27 µM (inactive); in [11], 1.91 µM (inactive); in [12] it was 0.542 µM (active). For the same compound, the GI50 in test [13] is 3.99 µM (inactive); in test [14], 2.02 µM (inactive); in test [15], 2.9 µM (inactive); in test [16], 1.09 µM (active); in test [17] it was 13.1 µM (inactive); in test [18], 3.68 µM (inactive). For the same compound, the GI50 is 10.2 µM (inactive) in test [19] and 4.59 µM (inactive) in [20].
Take `CCOc1ccc(Nc2nc(N)nc(N)c2N)cc1`: the GI50 in test [1] is 20.2 µM (inactive); in test [2], 30.7 µM (inactive); in test [3], 38.9 µM; in [4], 23.7 µM (inactive); in [5], 47.2 µM (inactive); in [6], 18.8 µM (inactive). In addition, the GI50 in [7] was 3.79 µM (inactive); in test [8] it was 12.6 µM (inactive); in test [9] it was 30.5 µM (inactive); in [10], 29.6 µM (inactive); in [11], 45.2 µM (inactive); in [12] it was 15.6 µM (inactive). Besides, the GI50 in test [13] was 17.9 µM (inactive); in [14], 21.7 µM (inactive); in [15] it was 44.9 µM (inactive); in test [16], 61.5 µM (inactive); in test [17], > 100 µM (inactive); in test [18], 33.1 µM (inactive). For the same compound, the GI50 in test [19] and in [20] was > 100 µM (inactive) each time.
Regarding `CCOC(=O)C1Cc2c(cc3c4c(cccc24)N(C(C)=O)C3)N(C)C1` (stereo not given), the GI50 in test [1] was 0.867 µM (active); in test [2], 3.67 µM (inactive); in test [3] it was over 100 µM; in test [4], 4.17 µM (inactive); in test [5], 29.9 µM (inactive); in test [6], 32.7 µM (inactive). For the same compound, the GI50 in [7] is 1.67 µM (inactive); in test [8], 5.18 µM (inactive); in test [9] it was 1.44 µM (inactive); in test [10], 17.7 µM (inactive); in test [11] it was 3.97 µM (inactive); in test [12], 5.86 µM (inactive). Also, the GI50 in test [13] is 8.26 µM (inactive); in [14], 3.18 µM (inactive); in [15], > 100 µM (inactive); in [16], > 100 µM (inactive); in test [17], 71.8 µM (inactive); in test [18] it was 4.86 µM (inactive). For the same compound, the results for the GI50 in test [19] and in test [20] were > 100 µM (inactive) and 39 µM (inactive), respectively.
With `COc1cc(/C=C2\C[C@H]3[C@@H]4CC=C5C=C(N6CCCC6)CC[C@]5(C)[C@H]4CC[C@]3(C)C2=O)cc(OC)c1OC`, the GI50 in test [1] is 2.82 µM (inactive); in test [2], 1.91 µM (inactive); in [3], 2.23 µM; in [4] it was 1.91 µM (inactive); in test [5] it was 2.19 µM (inactive); in test [6], 3.22 µM (inactive). The GI50 in test [7] is 2.32 µM (inactive); in test [8], 2.01 µM (inactive); in test [9] it was 1.88 µM (inactive); in test [10], 7.1 µM (inactive); in test [11], 2.16 µM (inactive); in test [12] it was 2.23 µM (inactive). Moreover, the GI50 in [13] was 2.22 µM (inactive); in [14], 3.5 µM (inactive); in test [15] it was 3.18 µM (inactive); in test [16] it was 2.76 µM (inactive); in [17], 6.89 µM (inactive); in test [18] it was 3.91 µM (inactive). For the same compound, the results for the GI50 in test [19] and in test [20] were 6.49 µM (inactive) and 3.1 µM (inactive), respectively.
For the compound `O=C1CC(=O)NC(NN2C(=O)CSC2c2ccc(Cl)cc2)=N1` (stereo not given), the GI50 in [1] was 25.7 µM (inactive); in [2], > 100 µM (inactive); in test [3], over 100 µM; in test [4] it was 32.8 µM (inactive); in test [5], 55.6 µM (inactive); in test [6], 61.1 µM (inactive). The GI50 in test [7] was 54.8 µM (inactive); in test [8] it was 65.8 µM (inactive); in test [9], > 100 µM (inactive); in test [10], > 100 µM (inactive); in [11], 91.6 µM (inactive); in test [12], 45 µM (inactive). Moreover, the GI50 in [13], in test [14], in [15], in [16], in [17] and in test [18] was > 100 µM (inactive) throughout. Moreover, the GI50 in [19] and in [20] was > 100 µM (inactive) throughout.
As for `Cc1cccc2c(NCCN(C)C)c3cccc(C(=O)NCCN(C)C)c3nc12`, the GI50 is 0.156 µM (active) in [1]; 0.0673 µM (active) in test [2]; 0.14 µM in test [3]; 0.0692 µM (active) in [4]; 0.578 µM (active) in [5]; 0.0656 µM (active) in test [6]. For the same compound, the GI50 in test [7] is 0.265 µM (active); in [8], 0.508 µM (active); in test [9] it was 0.31 µM (active); in test [10], 1.27 µM (inactive); in test [11], 0.107 µM (active); in [12] it was 0.316 µM (active). Also, the GI50 in test [13] was 0.105 µM (active); in test [14] it was 0.0649 µM (active); in test [15] it was 0.54 µM (active); in test [16], 0.157 µM (active); in [17], 0.226 µM (active); in [18] it was 0.0276 µM (active). In addition, the GI50 in test [19] is 0.445 µM (active); in [20], 0.693 µM (active).
`Nc1ccc2c(c1)N(C(=O)CCCC(=O)N1CC(CCl)c3ccc(N)cc31)CC2CCl` (stereo not given): the GI50 in test [1] was 0.185 µM (active); in test [2], 0.394 µM (active); in [3], 1.24 µM; in test [4], 0.948 µM (active); in [5] it was 0.604 µM (active); in [6] it was 0.333 µM (active). Moreover, the GI50 was 1.06 µM (active) in test [7]; 0.0883 µM (active) in [8]; 0.971 µM (active) in test [9]; 0.875 µM (active) in test [10]; 0.466 µM (active) in test [11]; 0.115 µM (active) in test [12]. In addition, the GI50 in [13] is 0.4 µM (active); in test [14] it was 0.461 µM (active); in test [15], 0.587 µM (active); in test [16], 0.236 µM (active); in [17] it was 2.34 µM (inactive); in [18] it was 0.977 µM (active). Further, the GI50 was 1.53 µM (inactive) in test [19] and 1.26 µM (inactive) in [20].
Consider `COc1cccc(Nc2nc(N)nc(N)c2N)c1`, for which the GI50 is 18.5 µM (inactive) in test [1]; 22.2 µM (inactive) in test [2]; 36.9 µM in [3]; > 100 µM (inactive) in [4]; > 100 µM (inactive) in test [5]; 30.4 µM (inactive) in test [6]. Also, the GI50 in test [7] was 19.5 µM (inactive); in test [8] it was > 100 µM (inactive); in test [9], 42.8 µM (inactive); in test [10], > 100 µM (inactive); in [11], 65.2 µM (inactive); in test [12], > 100 µM (inactive). Also, the GI50 in [13] is 29.7 µM (inactive); in test [14], 40.8 µM (inactive); in test [15], > 100 µM (inactive); in test [16], 30.3 µM (inactive); in test [17] it was > 100 µM (inactive); in test [18], 31.8 µM (inactive). In addition, the GI50 in test [19] and in test [20] was > 100 µM (inactive) each time.
